Data as given in publication PMC8222394 (Nature Communications, 2021).
Several values for one entry are separate records, joined by “and”; a condition that tells them apart may be missing. Equal entries are not always repeated. Where two headings read alike, the source gives them in different places.

What was measured:
[1] = tested on: TMPRSS2; conditions: for time to substantial reduction in TMPRSS2 expression / endogenous TMPRSS2 protein expression: Caco-2 cells; for time to substantial reduction in TMPRSS2 expression: 3 µM; for endogenous TMPRSS2 protein expression: 18 h; for TMPRSS2 densitometry (relative to 0): Caco-2, 18 h; for TMPRSS2 densitometry, time course: Fig. 4D, Caco-2, 3 µM
[2] = human, 3.5 mg/day Oral; cited from earlier work
[3] = cited from earlier work
[4] = molecular target: T1, TMPRSS2 (Homo sapiens, UniProt O15393); conditions: Beas-2B, HFG 3 μM 1 h
Target sequence in this assay (O15393 whole entry): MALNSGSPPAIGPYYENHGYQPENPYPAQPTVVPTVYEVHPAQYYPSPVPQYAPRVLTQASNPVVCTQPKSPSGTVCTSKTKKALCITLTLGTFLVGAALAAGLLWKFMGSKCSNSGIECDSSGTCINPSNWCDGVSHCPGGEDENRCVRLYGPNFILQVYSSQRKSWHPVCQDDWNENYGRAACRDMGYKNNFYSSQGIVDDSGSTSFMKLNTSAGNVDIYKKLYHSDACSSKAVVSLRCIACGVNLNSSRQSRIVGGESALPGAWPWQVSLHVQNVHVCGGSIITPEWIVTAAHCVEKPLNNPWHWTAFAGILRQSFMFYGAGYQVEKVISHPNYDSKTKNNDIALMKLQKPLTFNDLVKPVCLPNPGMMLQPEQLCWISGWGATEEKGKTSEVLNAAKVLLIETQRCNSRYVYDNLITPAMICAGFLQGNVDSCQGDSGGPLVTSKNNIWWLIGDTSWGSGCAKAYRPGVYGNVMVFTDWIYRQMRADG

[5] = tested on: E-cadherin; experiment: Immunoblot of E-cadherin in Caco-2 cells; type: cell-based, human
[6] = tested on: TMPRSS2; conditions: Caco-2 cells, 18 h treatment then washout
[7] = tested on: DCAF1; experiment: qPCR of DCAF1 gene expression in Caco-2 cells; type: cell-based, human; conditions: for DCAF1 gene expression: Caco-2, 3µM; for relative DCAF1 gene expression: block Vehicle/HFG/HHT, replicates
[8] = tested on: ST14; experiment: RT-qPCR of ST14 mRNA in Caco-2 cells; type: cell-based, human; conditions: Fig. S3B, Caco-2, 6 hr, relative to Veh
[9] = tested on: Ace2-GFP; experiment: Immunoblot of Ace2-GFP in Beas-2B cells; type: cell-based
[10] = tested on: TMPRSS2; experiment: In vitro transcription and translation proline treatment assay; type: biochemical; conditions: with or without L-proline supplementation
Description: TMPRSS2 constructs were synthesized in vitro using TnT Coupled Reticulocyte Lysate System (Promega) following manufacturer’s protocol. HFG plus proline assays were conducted using in vitro transcription and translation kit with free amino acids diluted 5-fold and proline supplemented at indicated concentrations. Following synthesis, products were analyzed via immunoblotting.

[11] = tested on: SARS-CoV-2 pseudovirus; type: cell-based
[12] = tested on: TMPRSS2; conditions: for TMPRSS2 transcription: Caco-2 cells
[13] = tested on: SARS-CoV-2 pseudovirus; experiment: microbe, parasite or virus in culture; type: cell-based; conditions: Severe acute respiratory syndrome-related coronavirus
[14] = tested on: TMPRSS2-V5; type: cell-based, human
[15] = tested on: SARS-CoV-2 pseudovirus; experiment: Cell-based proline treatment, pseudoviral entry; conditions: for pseudoviral entry relative to Veh: replicates, listed as HFG
[16] = tested on: DCAF1; experiment: Cellular thermal shift assay, DCAF1; type: binding, human; conditions: Beas-2B, HFG 3 μM 1 h
[17] = tested on: TMPRSS2; conditions: Beas-2B; for TMPRSS2 densitometry: Fig. 6A, 6 h, listed as HFG
[18] = in vitro; conditions: human
[19] = tested on: SARS-CoV-2 (wildtype-USA-WA1/2020); type: cell-based
[20] = tested on: SARS-CoV-2 pseudovirus; type: cell-based; remark: listed apart in the source
[21] = molecular target: T1, TMPRSS2; experiment: TMPRSS2 activity assay (Boc-Gln-Ala-Arg-MCA fluorescence); type: biochemical; parameters: purchased LSBio; conditions: for TMPRSS2 activity (FigS9 source data): replicates; for TMPRSS2 catalytic activity: recombinant TMPRSS2, preliminary
Description: Fluorescence (380-15 nm excitation/470-20 nm emission) of the samples was monitored over 4:45 h and the slope of the curves was calculated by linear regression analysis and used as output for TMPRSS2 activity.
Target sequence in this assay (O15393 106-492): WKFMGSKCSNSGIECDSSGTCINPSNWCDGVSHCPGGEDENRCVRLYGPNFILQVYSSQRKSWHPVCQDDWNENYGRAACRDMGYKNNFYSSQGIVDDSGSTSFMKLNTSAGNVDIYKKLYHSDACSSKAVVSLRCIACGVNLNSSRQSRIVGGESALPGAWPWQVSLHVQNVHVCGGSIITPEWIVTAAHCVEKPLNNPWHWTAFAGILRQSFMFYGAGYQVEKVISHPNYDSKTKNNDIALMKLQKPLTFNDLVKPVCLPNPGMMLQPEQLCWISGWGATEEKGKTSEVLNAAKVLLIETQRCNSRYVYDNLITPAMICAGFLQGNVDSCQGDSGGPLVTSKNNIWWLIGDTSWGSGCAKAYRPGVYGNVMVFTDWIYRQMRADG

[22] = tested on: TMPRSS2; conditions: Calu-3 cells
[23] = tested on: corin; experiment: RT-qPCR of CORIN mRNA in Caco-2 cells; type: cell-based, human; conditions: Fig. S3B, Caco-2, 6 hr, relative to Veh
[24] = tested on: SARS-CoV-2; conditions: cited from earlier work
[25] = Fig. S3B, Caco-2, 6 hr, relative to Veh
[26] = Caco-2, read-out: In vitro IC50 (viral entry)
[27] = Caco-2, read-out: concentration for 50% reduction in the level of pseudoviral entry

Structure (SMILES): O=C(CC1NCCCC1O)Cn1cnc2cc(Br)c(Cl)cc2c1=O (centres unmarked) [Halofuginone]
- time to substantial reduction in TMPRSS2 expression [1]: within three hours
- endogenous TMPRSS2 protein expression [1]: marked reduction
- TMPRSS2 densitometry (relative to 0) ([1]; Fig. 4C, head 1 (unit not given), listed as HFG): 0.1807 and 0.1069
- TMPRSS2 densitometry (relative to 0) ([1]; Fig. 4C, head 3, listed as HFG): 0.1607 and 0.08785
- TMPRSS2 densitometry, time course ([1]; time head 3, listed as HFG): 0.6876 and 0.6922 and 0.7386
- TMPRSS2 densitometry, time course ([1]; time head 6, listed as HFG): 0.2973 and 0.5193 and 0.5743
- TMPRSS2 densitometry, time course ([1]; time head 24, listed as HFG): 0.2861 and 0.2479 and 0.396
- Cmax [2]: 7 nM
- toxicity profile [3]: very mild toxicity profile and is generally well tolerated
- binding to TMPRSS2 [4]: does not bind
- E-cadherin protein [5]: unaffected
- recovery of TMPRSS2 levels after drug removal [6]: returned close to baseline roughly six hours after drug removal
- DCAF1 gene expression [7]: do not affect DCAF1 gene expression
- relative DCAF1 gene expression ([7]; listed as HFG): 1.066 and 1.83 and 0.845 and 0.576
- ST14 mRNA expression [8]: 0.847 and 0.804 and 0.672 and 1.192
- Ace2 protein [9]: unaffected
- synthesis of TMPRSS2 [10]: can inhibit the in vitro and in vivo synthesis of TMPRSS2 in a proline-dependent fashion
- pseudoviral luciferase reporter signal [11]: dose-dependent reduction of the luciferase signal
- signal relative to Control (FigS7 source data) [11]: 0.6435 and 0.5799 and 0.5278
- TMPRSS2 transcription [12]: modestly increased
- TMPRSS2 mRNA expression, Set1 [12, 25]: 1.663 and 2.342 and 1.988 and 2.135
- IC50 [13, 26]: ~30 nM
- IC50 [13, 27]: ~300 nM
- TMPRSS2-V5 versus LacZ-V5 expression [14]: selectively reduced TMPRSS2 expression
- pseudoviral entry relative to Veh ([15]; concentration 0.0137 (unit not given), 0mM Proline): 152.697 and 134.687 and 120.427 and 97.7116 and 89.0983 and 90.8546 and 80.2015 and 88.7016
- pseudoviral entry relative to Veh ([15]; concentration 0.0137 (unit not given), 1mM Proline): 78.8997 and 119.296 and 92.4783 and 61.8538 and 121.318 and 103.717 and 95.0292 and 87.0468
- pseudoviral entry relative to Veh ([15]; concentration 0.0137 (unit not given), 5mM Proline): 83.8659 and 82.9011 and 90.5346 and 126.552 and 83.6269 and 86.2224 and 92.3835 and 76.5378
- pseudoviral entry relative to Veh ([15]; concentration 0.0412 (unit not given), 0mM Proline): 135.074 and 83.8509 and 103.144 and 111.461 and 116.846 and 105.51 and 105.878 and 113.705
- pseudoviral entry relative to Veh ([15]; concentration 0.0412 (unit not given), 1mM Proline): 110.112 and 97.4283 and 87.7103 and 127.69 and 97.5882 and 67.824 and 78.2944 and 117.716
- pseudoviral entry relative to Veh ([15]; concentration 0.0412 (unit not given), 5mM Proline): 82.5299 and 121.265 and 73.6811 and 85.0503 and 103.755 and 88.171 and 83.5837 and 102.919
- pseudoviral entry relative to Veh ([15]; concentration 0.123 (unit not given), 0mM Proline): 99.7343 and 63.0974 and 80.3685 and 70.3519 and 79.4198 and 74.6305 and 82.2505 and 58.3341
- pseudoviral entry relative to Veh ([15]; concentration 0.123 (unit not given), 1mM Proline): 81.4705 and 100.257 and 127.468 and 88.584 and 113.575 and 85.4328 and 91.2395 and 78.3868
- pseudoviral entry relative to Veh ([15]; concentration 0.123 (unit not given), 5mM Proline): 62.4818 and 82.8199 and 109.855 and 101.172 and 80.2202 and 78.6211 and 92.2054 and 82.6012
- pseudoviral entry relative to Veh ([15]; concentration 0.37 (unit not given), 0mM Proline): 52.2274 and 41.9717 and 59.924 and 47.6381 and 40.7991 and 39.6967 and 44.7511 and 47.5163
- pseudoviral entry relative to Veh ([15]; concentration 0.37 (unit not given), 1mM Proline): 63.0963 and 89.0802 and 95.5491 and 76.9085 and 75.5967 and 54.6206 and 124.078 and 94.9093
- pseudoviral entry relative to Veh ([15]; concentration 0.37 (unit not given), 5mM Proline): 84.0152 and 111.59 and 116.82 and 90.6831 and 82.0915 and 111.563 and 85.8373 and 95.0829
- protection against pseudoviral entry with proline augmentation ([15]; proline added to cell culture media): ablated
- binding to DCAF1 [16]: does not bind
- effect on TMPRSS2 protein levels in DCAF1-knockdown cells ([17]; DCAF1 siRNA): abrogated
- TMPRSS2 expression in control knockdown cells ([17]; control siRNA): reduced TMPRSS2 expression
- TMPRSS2 densitometry ([17]; Ctrl siRNA, HFG 100 nM): 0.643 and 0.6245 and 0.6321
- TMPRSS2 densitometry ([17]; Ctrl siRNA, HFG 300 nM): 0.4952 and 0.3574 and 0.5989
- TMPRSS2 densitometry ([17]; DCAF1 KD 1, HFG 100 nM): 1.233 and 1.219 and 1.274
- TMPRSS2 densitometry ([17]; DCAF1 KD 1, HFG 300 nM): 1.254 and 1.215 and 1.261
- TMPRSS2 densitometry ([17]; DCAF1 KD 2, HFG 100 nM): 1.233 and 1.237 and 1.31
- TMPRSS2 densitometry ([17]; DCAF1 KD 2, HFG 300 nM): 1.246 and 1.239 and 1.116
- CC50 [18]: ~5540 nM
- reduction of SARS-CoV-2 viral infection [19]: highly effective in reducing SARS-CoV-2 viral infection
- pseudoviral GFP expression [20]: markedly reduced levels of GFP expression
- TMPRSS2 activity (FigS9 source data) ([21]; 0.08 µM): 0.4091 and 0.4156 and 0.3953 and 0.4416
- TMPRSS2 activity (FigS9 source data) ([21]; 0.4 µM): 0.4106 and 0.359 and 0.3929 and 0.3576
- TMPRSS2 activity (FigS9 source data) ([21]; 2 µM): 0.4305 and 0.3555 and 0.3601 and 0.3121
- TMPRSS2 catalytic activity [21]: does not inhibit TMPRSS2 catalytic activity
- TMPRSS2 protein levels [22]: qualitatively similar decreases

Structure (SMILES): COC(=O)C[C@](O)(CCCC(C)(C)O)C(=O)O[C@@H]1C(OC)=C[C@]23CCCN2CCc2cc4c(cc2[C@H]13)OCO4 [Homoharringtonine]
- time to substantial reduction in TMPRSS2 expression [1]: within three hours
- endogenous TMPRSS2 protein expression [1]: marked reduction
- TMPRSS2 densitometry (relative to 0) ([1]; Fig. 4B, head 0.3 (unit not given), listed as HHT): 0.2253 and 0.285
- TMPRSS2 densitometry (relative to 0) ([1]; Fig. 4B, head 1, listed as HHT): 0.1372 and 0.2276
- TMPRSS2 densitometry (relative to 0) ([1]; Fig. 4B, head 3, listed as HHT): 0.1102 and 0.1378
- clinical adverse events [3]: grade III or IV adverse events, including severe myelosuppression
- toxicity profile [3]: relatively toxic agent with an adverse side effect profile
- E-cadherin protein [5]: unaffected
- recovery of TMPRSS2 levels after drug removal [6]: returned close to baseline roughly six hours after drug removal
- DCAF1 gene expression [7]: do not affect DCAF1 gene expression
- relative DCAF1 gene expression ([7]; listed as HHT): 1.551 and 2.869 and 1.311
- Ace2 protein [9]: unaffected
- pseudoviral luciferase reporter signal [11]: dose-dependent reduction of the luciferase signal
- signal relative to Control (FigS7 source data) [11]: 0.9261 and 0.5325 and 0.6307
- TMPRSS2 transcription [12]: modestly increased
- TMPRSS2 mRNA expression, Set1 [12, 25]: 2.5 and 2.009 and 1.288 and 1.873
- TMPRSS2 mRNA expression, set2 [12, 25]: 2.103 and 1.771 and 1.821 and 2.33
- TMPRSS2 mRNA expression, set3 [12, 25]: 2.872 and 1.654 and 1.63 and 2.705
- IC50 [13, 26]: ~30 nM
- IC50 [13, 27]: ~300 nM
- TMPRSS2-V5 versus LacZ-V5 expression [14]: selectively reduced TMPRSS2 expression
- CC50 [18]: > 10000 nM
- CORIN mRNA expression [23]: 1.163 and 0.982 and 0.932 and 0.999
- EC50 [24]: 2100 nM
- EC50 observed in TMPRSS2-expressing Calu-3 cells [19]: in the sub-micromolar range
- reduction of SARS-CoV-2 viral infection [19]: highly effective in reducing SARS-CoV-2 viral infection
- pseudoviral GFP expression [20]: markedly reduced levels of GFP expression
- TMPRSS2 activity (FigS9 source data) ([21]; 0.08 µM): 0.4186 and 0.4254 and 0.3869 and 0.4813
- TMPRSS2 activity (FigS9 source data) ([21]; 0.4 µM): 0.428 and 0.3513 and 0.3883 and 0.3736
- TMPRSS2 activity (FigS9 source data) ([21]; 2 µM): 0.3803 and 0.3278 and 0.3209 and 0.2843
- TMPRSS2 catalytic activity [21]: do not inhibit TMPRSS2 activity
- TMPRSS2 protein levels [22]: qualitatively similar decreases
